Bridge positions count the residues as written; N and C are the ends. Square brackets hold non-standard residues; d marks the D form. Peptide text beside a SMILES is read from it. * marks the point of attachment. ξ: configuration not given here. Phe(4-COOH) = N[C@@H](Cc1ccc(C(=O)O)cc1)C(=O)O; Bip = N[C@@H](Cc1ccc(-c2ccccc2)cc1)C(=O)O; Phe(3-Me) = Cc1cccc(C[C@H](N)C(=O)O)c1; Cha = N[C@@H](CC1CCCCC1)C(=O)O; Cit = NC(=O)NCCC[C@H](N)C(=O)O; Carboxymethyl = O=C(O)C*; Orn = NCCC[C@H](N)C(=O)O; Aun = NCCCCCCCCCCC(=O)O; Dab = NCC[C@H](N)C(=O)O; Dap = NC[C@H](N)C(=O)O; AEEA = NCCOCCOCC(=O)O; ξV = CC(C)C(N)C(=O)O; Propargyl = C#CC*

Usually IC50 stands for the concentration that gives 50% inhibition.

T1 sequence (Q15116 25-288): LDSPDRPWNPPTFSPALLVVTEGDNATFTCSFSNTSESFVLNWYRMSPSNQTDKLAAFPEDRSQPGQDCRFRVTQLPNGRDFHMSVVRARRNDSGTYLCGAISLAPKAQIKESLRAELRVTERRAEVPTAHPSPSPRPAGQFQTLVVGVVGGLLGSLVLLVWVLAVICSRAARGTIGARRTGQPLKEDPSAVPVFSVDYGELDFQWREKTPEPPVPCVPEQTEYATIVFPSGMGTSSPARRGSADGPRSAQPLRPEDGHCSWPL

The experiment addresses T1, PD-1/PD-L1 interaction (PE-labeled human PD-L1-Ig binding to Jurkat cell line over-expressing human PD-1) (Homo sapiens, UniProt Q15116).
T1 construct: expressed in transfected cells; host or cells: Jurkat
The experiment is described as follows: Jurkat-PD-1 Cell Binding High-Content Screening Assay (CBA). The class given is cell-based. As to conditions: Jurkat cell line over-expressing human PD-1; PE-labeled PD-L1-Ig 20 nM final; read-out: Jurkat hPD1-PDL1 IC50. The method, boiled down: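 Human PD-L1-Ig carrying a covalent PE label on its Ig tag serves as the probe, applied at 20 nM final to compound-treated (2 h, 37° C) Jurkat-hPD-1 cells in medium with 10% fetal calf serum. After one hour, fixation and nuclear staining precede high-content image analysis.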
With `CC(C)C[C@@H]1NC(=O)[C@H](Cc2c[nH]c3ccccc23)NC(=O)[C@H](CC(=O)O)NC(=O)[C@H](Cc2ccc(C(=O)O)cc2)NC(=O)[C@H](Cc2ccc(OCC(=O)O)cc2)NC(=O)CSC[C@@H](C(=O)N[C@@H](CCCN)C(=O)NCCCCCCCCCCC(=O)O)NC(=O)[C@H](CCCNC(N)=O)NC(=O)[C@H](C(C)C)NC(=O)[C@H](CC2CCCCC2)NC(=O)[C@H](CCN)NC(=O)[C@@H](CC(C)C)NC(=O)[C@H](CCCN)NC(=O)[C@H](Cc2ccc(O)cc2)NC(=O)[C@H](Cc2ccc(-c3ccccc3)cc2)NC1=O` [Compound 1235] ({CH2CO}-Y(Carboxymethyl)[Phe(4-COOH)]DWL[Bip]Y[Orn][dL][Dab][Cha]V[Cit]C[Orn][Aun]-OH; thioether N-14), the IC50 was 32.1 nM.
For `CC(C)C[C@@H]1NC(=O)[C@H](Cc2c[nH]c3ccccc23)NC(=O)[C@H](CC(=O)O)NC(=O)[C@H](Cc2ccc(C(=O)O)cc2)NC(=O)[C@H](Cc2ccc(OCC(=O)O)cc2)NC(=O)CSC[C@@H](C(=O)N[C@@H](CCCCN)C(=O)NCCCCCCCCCCC(=O)O)NC(=O)[C@H](CCCNC(N)=O)NC(=O)[C@H](C(C)C)NC(=O)[C@H](CC2CCCCC2)NC(=O)[C@H](CCN)NC(=O)[C@@H](CC(C)C)NC(=O)[C@H](CCCN)NC(=O)[C@H](Cc2ccc(O)cc2)NC(=O)[C@H](Cc2ccc(-c3ccccc3)cc2)NC1=O` [Compound 1236] ({CH2CO}-Y(Carboxymethyl)[Phe(4-COOH)]DWL[Bip]Y[Orn][dL][Dab][Cha]V[Cit]CK[Aun]-OH; thioether N-14), the IC50 was found to be 35.7 nM.
In the case of `CC(C)C[C@@H]1NC(=O)[C@H](Cc2c[nH]c3ccccc23)NC(=O)[C@H](CC(=O)O)NC(=O)[C@H](Cc2ccc(C(=O)O)cc2)NC(=O)[C@H](Cc2ccc(OCC(=O)O)cc2)NC(=O)CSC[C@@H](C(=O)N[C@@H](CCCNC(=N)N)C(=O)NCCCCCCCCCCC(=O)O)NC(=O)[C@H](CCCNC(N)=O)NC(=O)[C@H](C(C)C)NC(=O)[C@H](CC2CCCCC2)NC(=O)[C@H](CCN)NC(=O)[C@@H](CC(C)C)NC(=O)[C@H](CCCN)NC(=O)[C@H](Cc2ccc(O)cc2)NC(=O)[C@H](Cc2ccc(-c3ccccc3)cc2)NC1=O` [Compound 1237] ({CH2CO}-Y(Carboxymethyl)[Phe(4-COOH)]DWL[Bip]Y[Orn][dL][Dab][Cha]V[Cit]CR[Aun]-OH; thioether N-14) it was 70.6 nM; in that of `CC(C)C[C@@H]1NC(=O)[C@H](Cc2c[nH]c3ccccc23)NC(=O)[C@H](CC(=O)O)NC(=O)[C@H](Cc2ccc(C(=O)O)cc2)NC(=O)[C@H](Cc2ccc(OCC(=O)O)cc2)NC(=O)CSC[C@@H](C(=O)NCCOCCOCC(=O)NCCCCCCCCCCC(=O)O)NC(=O)[C@H](CN)NC(=O)[C@H](C(C)C)NC(=O)[C@H](CC2CCCCC2)NC(=O)[C@H](CCN)NC(=O)[C@@H](CC(C)C)NC(=O)[C@H](CCCN)NC(=O)[C@H](Cc2ccc(O)cc2)NC(=O)[C@H](Cc2ccc(-c3ccccc3)cc2)NC1=O` [Compound 1238] ({CH2CO}-Y(Carboxymethyl)[Phe(4-COOH)]DWL[Bip]Y[Orn][dL][Dab][Cha]V[Dap]C[AEEA][Aun]-OH; thioether N-14), 39.3 nM; in that of `CC(C)C[C@@H]1NC(=O)[C@H](Cc2c[nH]c3ccccc23)NC(=O)[C@H](CC(=O)O)NC(=O)[C@H](Cc2ccc(C(=O)O)cc2)NC(=O)[C@H](Cc2ccc(OCC(=O)O)cc2)NC(=O)CSC[C@@H](C(=O)NCCOCCOCC(=O)NCCCCCCCCCCC(=O)O)NC(=O)[C@H](CCN)NC(=O)[C@H](C(C)C)NC(=O)[C@H](CC2CCCCC2)NC(=O)[C@H](CCN)NC(=O)[C@@H](CC(C)C)NC(=O)[C@H](CCCN)NC(=O)[C@H](Cc2ccc(O)cc2)NC(=O)[C@H](Cc2ccc(-c3ccccc3)cc2)NC1=O` [Compound 1239] ({CH2CO}-Y(Carboxymethyl)[Phe(4-COOH)]DWL[Bip]Y[Orn][dL][Dab][Cha]V[Dab]C[AEEA][Aun]-OH; thioether N-14), 30.2 nM.
For the compound `CC(C)C[C@@H]1NC(=O)[C@H](Cc2c[nH]c3ccccc23)NC(=O)[C@H](CC(=O)O)NC(=O)[C@H](Cc2ccc(C(=O)O)cc2)NC(=O)[C@H](Cc2ccc(OCC(=O)O)cc2)NC(=O)CSC[C@@H](C(=O)NCCOCCOCC(=O)NCCCCCCCCCCC(=O)O)NC(=O)[C@H](CCCN)NC(=O)[C@H](C(C)C)NC(=O)[C@H](CC2CCCCC2)NC(=O)[C@H](CCN)NC(=O)[C@@H](CC(C)C)NC(=O)[C@H](CCCN)NC(=O)[C@H](Cc2ccc(O)cc2)NC(=O)[C@H](Cc2ccc(-c3ccccc3)cc2)NC1=O` [Compound 1240] ({CH2CO}-Y(Carboxymethyl)[Phe(4-COOH)]DWL[Bip]Y[Orn][dL][Dab][Cha]V[Orn]C[AEEA][Aun]-OH; thioether N-14), the half-inhibitory concentration (IC50) worked out at 20.6 nM.
In the case of `CC(C)C[C@@H]1NC(=O)[C@H](Cc2c[nH]c3ccccc23)NC(=O)[C@H](CC(=O)O)NC(=O)[C@H](Cc2ccc(C(=O)O)cc2)NC(=O)[C@H](Cc2ccc(OCC(=O)O)cc2)NC(=O)CSC[C@@H](C(=O)NCCOCCOCC(=O)NCCCCCCCCCCC(=O)O)NC(=O)[C@H](CCCCN)NC(=O)[C@H](C(C)C)NC(=O)[C@H](CC2CCCCC2)NC(=O)[C@H](CCN)NC(=O)[C@@H](CC(C)C)NC(=O)[C@H](CCCN)NC(=O)[C@H](Cc2ccc(O)cc2)NC(=O)[C@H](Cc2ccc(-c3ccccc3)cc2)NC1=O` [Compound 1241] ({CH2CO}-Y(Carboxymethyl)[Phe(4-COOH)]DWL[Bip]Y[Orn][dL][Dab][Cha]VKC[AEEA][Aun]-OH; thioether N-14) it was 18.4 nM.
With `CC(C)C[C@@H]1NC(=O)[C@H](Cc2c[nH]c3ccccc23)NC(=O)[C@H](CC(=O)O)NC(=O)[C@H](Cc2ccc(C(=O)O)cc2)NC(=O)[C@H](Cc2ccc(OCC(=O)O)cc2)NC(=O)CSC[C@@H](C(=O)NCCOCCOCC(=O)NCCCCCCCCCCC(=O)O)NC(=O)[C@H](CCCNC(=N)N)NC(=O)[C@H](C(C)C)NC(=O)[C@H](CC2CCCCC2)NC(=O)[C@H](CCN)NC(=O)[C@@H](CC(C)C)NC(=O)[C@H](CCCN)NC(=O)[C@H](Cc2ccc(O)cc2)NC(=O)[C@H](Cc2ccc(-c3ccccc3)cc2)NC1=O` [Compound 1242] ({CH2CO}-Y(Carboxymethyl)[Phe(4-COOH)]DWL[Bip]Y[Orn][dL][Dab][Cha]VRC[AEEA][Aun]-OH; thioether N-14), the IC50 worked out at 33.3 nM.
`CC(C)C[C@H]1NC(=O)[C@H](CCCN)NC(=O)[C@H](Cc2ccc(O)cc2)NC(=O)[C@H](Cc2ccc(-c3ccccc3)cc2)NC(=O)[C@H](C(C)C)NC(=O)[C@H](Cc2c[nH]c3ccccc23)NC(=O)[C@H](CC(=O)O)NC(=O)[C@H](Cc2ccc(C(=O)O)cc2)NC(=O)[C@H](Cc2ccc(OCC(=O)O)cc2)NC(=O)CSC[C@@H](C(=O)NCCOCCOCC(=O)NCCCCCCCCCCC(=O)O)NC(=O)[C@H](CCCNC(N)=O)NC(=O)C(C(C)C)NC(=O)[C@H](CC2CCCCC2)NC(=O)[C@H](CCN)NC1=O` (stereo partly drawn) [Compound 1243] ({CH2CO}-Y(Carboxymethyl)[Phe(4-COOH)]DWV[Bip]Y[Orn][dL][Dab][Cha][ξV][Cit]C[AEEA][Aun]-OH; thioether N-14): the IC50 turned out to be 11.7 nM.
As to `Cc1cccc(C[C@@H]2NC(=O)[C@H](CC(=O)O)NC(=O)[C@H](Cc3ccc(OCC(=O)O)cc3)NC(=O)[C@H](CN)NC(=O)CSC[C@@H](C(=O)N[C@@H](CCN)C(=O)NCCCCCCCCCCC(=O)O)NC(=O)[C@H](CCC(N)=O)NC(=O)[C@H](C(C)C)NC(=O)[C@H](CC3CCCCC3)NC(=O)[C@H](CCN)NC(=O)[C@@H](CC(C)C)NC(=O)[C@H](CCCN)NC(=O)[C@H](CCCNC(N)=O)NC(=O)[C@H](Cc3ccc(-c4ccccc4)cc3)NC(=O)[C@H](C(C)C)NC2=O)c1` [Compound 1244] ({CH2CO}-[Dap]Y(Carboxymethyl)D[Phe(3-Me)]V[Bip][Cit][Orn][dL][Dab][Cha]VQC[Dab][Aun]-OH; thioether N-14), the IC50 was 16.2 nM.
For the compound `Cc1cccc(C[C@@H]2NC(=O)[C@H](CC(=O)O)NC(=O)[C@H](Cc3ccc(OCC(=O)O)cc3)NC(=O)[C@H](CN)NC(=O)CSC[C@@H](C(=O)N[C@@H](CCN)C(=O)NCCCCCCCCCCC(=O)O)NC(=O)[C@H](CCC(=O)O)NC(=O)[C@H](C(C)C)NC(=O)[C@H](CC3CCCCC3)NC(=O)[C@H](CCN)NC(=O)[C@@H](CC(C)C)NC(=O)[C@H](CCCN)NC(=O)[C@H](Cc3ccc(OCC(=O)O)cc3)NC(=O)[C@H](Cc3ccc(-c4ccccc4)cc3)NC(=O)[C@H](Cc3ccc(OCC(=O)O)cc3)NC2=O)c1` [Compound 1245] ({CH2CO}-[Dap]Y(Carboxymethyl)D[Phe(3-Me)]Y(Carboxymethyl)[Bip]Y(Carboxymethyl)[Orn][dL][Dab][Cha]VEC[Dab][Aun]-OH; thioether N-14), the half-inhibitory concentration (IC50) amounted to 35.1 nM.
With `Cc1cccc(C[C@@H]2NC(=O)[C@H](CC(=O)O)NC(=O)[C@H](Cc3ccc(OCC(=O)O)cc3)NC(=O)[C@H](CN)NC(=O)CSC[C@@H](C(=O)N[C@@H](CCN)C(=O)NCCCCCCCCCCC(=O)O)NC(=O)[C@H](CCC(N)=O)NC(=O)[C@H](C(C)C)NC(=O)[C@H](CC3CCCCC3)NC(=O)[C@H](CCN)NC(=O)[C@@H](CC(C)C)NC(=O)[C@H](CCCN)NC(=O)[C@H](Cc3ccc(OCC(=O)O)cc3)NC(=O)[C@H](Cc3ccc(-c4ccccc4)cc3)NC(=O)[C@H](Cc3ccc(OCC(=O)O)cc3)NC2=O)c1` [Compound 1247] ({CH2CO}-[Dap]Y(Carboxymethyl)D[Phe(3-Me)]Y(Carboxymethyl)[Bip]Y(Carboxymethyl)[Orn][dL][Dab][Cha]VQC[Dab][Aun]-OH; thioether N-14), the half-inhibitory concentration (IC50) worked out at 17.6 nM.
In the case of `C#CCOc1ccc(C[C@@H]2NC(=O)[C@H](C(C)C)NC(=O)[C@H](CC3CCCCC3)NC(=O)[C@H](CCN)NC(=O)[C@@H](CC(C)C)NC(=O)[C@H](CCCN)NC(=O)[C@H](Cc3ccc(OCC(=O)O)cc3)NC(=O)[C@H](Cc3ccc(-c4ccccc4)cc3)NC(=O)[C@H](Cc3ccc(OCC(=O)O)cc3)NC(=O)[C@H](Cc3cccc(C)c3)NC(=O)[C@H](CC(=O)O)NC(=O)[C@H](Cc3ccc(OCC(=O)O)cc3)NC(=O)[C@H](CN)NC(=O)CSC[C@@H](C(=O)N[C@@H](CCN)C(=O)NCCCCCCCCCCC(=O)O)NC2=O)cc1` [Compound 1248] ({CH2CO}-[Dap]Y(Carboxymethyl)D[Phe(3-Me)]Y(Carboxymethyl)[Bip]Y(Carboxymethyl)[Orn][dL][Dab][Cha]VY(Propargyl)C[Dab][Aun]-OH; thioether N-14), the IC50 amounted to 367 nM.

Values taken from patent US20260022142A1, “MACROCYCLIC IMMUNOMODULATORS” (Bristol-Myers Squibb Company, priority 2022, published 2026).
